Measurements as given in patent US11331314B2, “Amine substituted triazole derivatives and uses thereof” (Bayer Pharma Aktiengesellschaft, priority 2017, dated 2022).

Tests used:
[1] = target: human V1a receptor (Homo sapiens, UniProt P37288); assay: Cellular in vitro assay for determining vasopressin receptor activity, V1a receptor cell line (photoprotein luminescence); assay type: cell-based; details: for IC50: CHO cell line transfected with the human V1a receptor, agonist [Arg8]-vasopressin at EC50 concentration, read-out: IC50 hV1a; for ratio IC50 hV2/hV1a: selectivity ratio of the cellular IC50 values
Chain of human V1a receptor (P37288 whole entry): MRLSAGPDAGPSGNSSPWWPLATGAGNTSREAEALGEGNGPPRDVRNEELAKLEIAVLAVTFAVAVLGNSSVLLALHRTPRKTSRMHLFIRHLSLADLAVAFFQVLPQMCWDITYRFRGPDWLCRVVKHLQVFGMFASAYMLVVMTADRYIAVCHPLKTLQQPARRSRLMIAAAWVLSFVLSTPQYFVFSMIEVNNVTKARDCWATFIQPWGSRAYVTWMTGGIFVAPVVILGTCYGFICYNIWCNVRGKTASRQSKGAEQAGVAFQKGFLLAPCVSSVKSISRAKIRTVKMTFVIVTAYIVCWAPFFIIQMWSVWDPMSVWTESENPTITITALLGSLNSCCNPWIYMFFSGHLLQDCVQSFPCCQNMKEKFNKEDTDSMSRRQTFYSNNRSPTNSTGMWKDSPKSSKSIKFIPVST
How it was run: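 CHO K1 cells stably expressing human V1a receptor with aequorin photoprotein, loaded overnight with coelenterazine. Compounds preincubated 10 min at various concentrations, then challenged with [Arg^8]-vasopressin at EC50 concentration. Calcium-driven luminescence read immediately; IC50 values derived.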

[2] = target: T1, human V2 receptor (Homo sapiens, UniProt P30518); assay: Cellular in vitro assay for determining vasopressin receptor activity, V2 receptor cell line (CRE-luciferase); assay type: cell-based; details: CHO cell line transfected with the human V2 receptor; agonist [Arg8]-vasopressin at EC50 concentration; read-out: IC50 hV2
T1 construct: expressed in transfected cells; host or cells: CHO K1 (ATCC) expressing firefly luciferase under a CRE-responsive promoter
T1 sequence (P30518 whole entry): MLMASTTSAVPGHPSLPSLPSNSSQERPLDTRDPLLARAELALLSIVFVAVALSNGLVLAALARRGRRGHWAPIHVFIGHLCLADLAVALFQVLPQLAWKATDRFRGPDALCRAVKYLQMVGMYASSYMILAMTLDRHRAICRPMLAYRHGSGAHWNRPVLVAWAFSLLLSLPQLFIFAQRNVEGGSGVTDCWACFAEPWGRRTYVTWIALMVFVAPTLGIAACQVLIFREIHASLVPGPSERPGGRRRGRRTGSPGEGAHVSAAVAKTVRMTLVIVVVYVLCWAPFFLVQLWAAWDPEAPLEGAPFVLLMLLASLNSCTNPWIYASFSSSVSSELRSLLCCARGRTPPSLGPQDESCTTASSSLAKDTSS

SMILES	IC50 [1] [nM]	ratio IC50 hV2/hV1a [1]	IC50 [2] [nM]
COCCNc1nc(Cn2nc(-c3ccc(Cl)cc3)n(C[C@H](O)C(F)(F)F)c2=O)nn1-c1ccccc1Cl [Example 79, 5-(4-Chlorophenyl)-2-({1-(2-chlorophenyl)-5-[(2-methoxyethyl)amino]-1H-1,2,4-triazol-3-yl}methyl)-4-[(2S)-3,3,3-trifluoro-2-hydroxypropyl]-2,4-dihydro-3H-1,2,4-triazol-3-one]	0.32	6.8	2.19
O=c1n(Cc2nc(NCCO)n(-c3ccccc3Cl)n2)nc(-c2ccc(Cl)cc2)n1C[C@H](O)C(F)(F)F [Example 80, 5-(4-Chlorophenyl)-2-({1-(2-chlorophenyl)-5-[(2-hydroxyethyl)amino]-1H-1,2,4-triazol-3-yl}methyl)-4-[(2S)-3,3,3-trifluoro-2-hydroxypropyl]-2,4-dihydro-3H-1,2,4-triazol-3-one]	0.36	7.8	2.79
O=c1n(Cc2nc(N3CC(F)(F)C3)n(-c3ccccc3Cl)n2)nc(-c2ccc(Cl)cc2)n1C[C@H](O)C(F)(F)F [Example 81, 5-(4-Chlorophenyl)-2-{[1-(2-chlorophenyl)-5-(3,3-difluoroazetidin-1-yl)-1H-1,2,4-triazol-3-yl]methyl}-4-[(2S)-3,3,3-trifluoro-2-hydroxypropyl]-2,4-dihydro-3H-1,2,4-triazol-3-one]	1.6	11.0	17.7
CC(C)(O)CNc1nc(Cn2nc(-c3ccc(Cl)cc3)n(C[C@H](O)C(F)(F)F)c2=O)nn1-c1ccccc1Cl [Example 82, 5-(4-Chlorophenyl)-2-({1-(2-chlorophenyl)-5-[(2-hydroxy-2-methylpropyl)amino]-1H-1,2,4-triazol-3-yl}methyl)-4-[(2S)-3,3,3-trifluoro-2-hydroxypropyl]-2,4-dihydro-3H-1,2,4-triazol-3-one]	0.86	7.5	6.47
O=c1n(Cc2nc(N3CCOCC3)n(-c3ccccc3Cl)n2)nc(-c2ccc(Cl)cc2)n1C[C@H](O)C(F)(F)F [Example 83, 5-(4-Chlorophenyl)-2-{[1-(2-chlorophenyl)-5-(morpholin-4-yl)-1H-1,2,4-triazol-3-yl]methyl}-4-[(2S)-3,3,3-trifluoro-2-hydroxypropyl]-2,4-dihydro-3H-1,2,4-triazol-3-one]	0.56	25.7	14.3
CN(CCO)c1nc(Cn2nc(-c3ccc(Cl)cc3)n(C[C@H](O)C(F)(F)F)c2=O)nn1-c1ccccc1Cl [Example 84, 5-(4-Chlorophenyl)-2-({1-(2-chlorophenyl)-5-[(2-hydroxyethyl)(methyl)amino]-1H-1,2,4-triazol-3-yl}methyl)-4-[(2S)-3,3,3-trifluoro-2-hydroxypropyl]-2,4-dihydro-3H-1,2,4-triazol-3-one]	0.83	14.4	12
COCCN(C)c1nc(Cn2nc(-c3ccc(Cl)cc3)n(C[C@H](O)C(F)(F)F)c2=O)nn1-c1ccccc1Cl [Example 85, 5-(4-Chlorophenyl)-2-({1-(2-chlorophenyl)-5-[(2-methoxyethyl)(methyl)amino]-1H-1,2,4-triazol-3-yl}methyl)-4-[(2S)-3,3,3-trifluoro-2-hydroxypropyl]-2,4-dihydro-3H-1,2,4-triazol-3-one]	0.58	16.9	9.76
O=c1n(Cc2nc(N3CC4(COC4)C3)n(-c3ccccc3Cl)n2)nc(-c2ccc(Cl)cc2)n1C[C@H](O)C(F)(F)F [Example 86, 5-(4-Chlorophenyl)-2-{[1-(2-chlorophenyl)-5-(2-oxa-6-azaspiro[3.3]hept-6-yl)-1H-1,2,4-triazol-3-yl]methyl}-4-[(2S)-3,3,3-trifluoro-2-hydroxypropyl]-2,4-dihydro-3H-1,2,4-triazol-3-one]	0.98	6.8	6.66
O=c1n(Cc2nc(N3CCCC3)n(-c3ccccc3Cl)n2)nc(-c2ccc(Cl)cc2)n1C[C@H](O)C(F)(F)F [Example 87, 5-(4-Chlorophenyl)-2-{[1-(2-chlorophenyl)-5-(pyrrolidin-1-yl)-1H-1,2,4-triazol-3-yl]methyl}-4-[(2S)-3,3,3-trifluoro-2-hydroxypropyl]-2,4-dihydro-3H-1,2,4-triazol-3-one]	2.41	11.1	26.8
O=c1n(Cc2nc(N3CCCC3)n(-c3cccc(F)c3)n2)nc(-c2ccc(Cl)cc2)n1C[C@H](O)C(F)(F)F [Example 88, 5-(4-Chlorophenyl)-2-{[1-(3-fluorophenyl)-5-(pyrrolidin-1-yl)-1H-1,2,4-triazol-3-yl]methyl}-4-[(2S)-3,3,3-trifluoro-2-hydroxypropyl]-2,4-dihydro-3H-1,2,4-triazol-3-one]	5.59	2.1	11.9
O=C1CN(c2nc(Cn3nc(-c4ccc(Cl)cc4)n(C[C@H](O)C(F)(F)F)c3=O)nn2-c2ccccc2F)CCN1 [Example 89, 4-[3-({3-(4-Chlorophenyl)-5-oxo-4-[(2S)-3,3,3-trifluoro-2-hydroxypropyl]-4,5-dihydro-1H-1,2,4-triazol-1-yl}methyl)-1-(2-fluorophenyl)-1H-1,2,4-triazol-5-yl]piperazin-2-one]	5.45	14.8	80.5
O=c1n(Cc2nc(N3CCS(=O)(=O)CC3)n(-c3ccccc3F)n2)nc(-c2ccc(Cl)cc2)n1C[C@H](O)C(F)(F)F [Example 90, 5-(4-Chlorophenyl)-2-{[5-(1,1-dioxidothiomorpholin-4-yl)-1-(2-fluorophenyl)-1H-1,2,4-triazol-3-yl]methyl}-4-[(2S)-3,3,3-trifluoro-2-hydroxypropyl]-2,4-dihydro-3H-1,2,4-triazol-3-one]	8.8	28.1	248
CC(C)(N)CNc1nc(Cn2nc(-c3ccc(Cl)cc3)n(C[C@H](O)C(F)(F)F)c2=O)nn1-c1ccccc1F [Example 91, 2-({5-[(2-Amino-2-methylpropyl)amino]-1-(2-fluorophenyl)-1H-1,2,4-triazol-3-yl}methyl)-5-(4-chlorophenyl)-4-[(2S)-3,3,3-trifluoro-2-hydroxypropyl]-2,4-dihydro-3H-1,2,4-triazol-3-one]	1.15	91.7	105
CC(C)(N)CNc1nc(Cn2nc(-c3ccc(Cl)cc3)n(C[C@H](O)C(F)(F)F)c2=O)nn1-c1ncccc1F [Example 92, 2-({5-[(2-Amino-2-methylpropyl)amino]-1-(3-fluoropyridin-2-yl)-1H-1,2,4-triazol-3-yl}methyl)-5-(4-chlorophenyl)-4-[(2S)-3,3,3-trifluoro-2-hydroxypropyl]-2,4-dihydro-3H-1,2,4-triazol-3-one]	41.5	73.5	3050
CC(C)(N)CNc1nc(Cn2nc(-c3ccc(Cl)cc3)n(C[C@H](O)C(F)(F)F)c2=O)nn1-c1ccccn1 [Example 93, 2-({5-[(2-Amino-2-methylpropyl)amino]-1-(pyridin-2-yl)-1H-1,2,4-triazol-3-yl}methyl)-5-(4-chlorophenyl)-4-[(2S)-3,3,3-trifluoro-2-hydroxypropyl]-2,4-dihydro-3H-1,2,4-triazol-3-one]	28	112.5	3150
CC(C)(N)CNc1nc(Cn2nc(-c3ccc(Cl)cc3)n(C[C@H](O)C(F)(F)F)c2=O)nn1-c1ccccc1 [Example 94, 2-({5-[(2-Amino-2-methylpropyl)amino]-1-phenyl-1H-1,2,4-triazol-3-yl}methyl)-5-(4-chlorophenyl)-4-[(2S)-3,3,3-trifluoro-2-hydroxypropyl]-2,4-dihydro-3H-1,2,4-triazol-3-one]	4.3	22.2	95.5
CC(C)(N)CNc1nc(Cn2nc(-c3ccc(Cl)cc3)n(C[C@H](O)C(F)(F)F)c2=O)nn1-c1ncccc1Cl [Example 95, 2-({5-[(2-Amino-2-methylpropyl)amino]-1-(3-chloropyridin-2-yl)-1H-1,2,4-triazol-3-yl}methyl)-5-(4-chlorophenyl)-4-[(2S)-3,3,3-trifluoro-2-hydroxypropyl]-2,4-dihydro-3H-1,2,4-triazol-3-one]	0.86	845.9	727
O=c1n(Cc2nc(N3CCS(=O)(=O)CC3)n(-c3ncccc3Cl)n2)nc(-c2ccc(Cl)cc2)n1C[C@H](O)C(F)(F)F [Example 96, 5-(4-Chlorophenyl)-2-{[1-(3-chloropyridin-2-yl)-5-(1,1-dioxidothiomorpholin-4-yl)-1H-1,2,4-triazol-3-yl]methyl}-4-[(2S)-3,3,3-trifluoro-2-hydroxypropyl]-2,4-dihydro-3H-1,2,4-triazol-3-one]	1	407.5	408
O=C1CN(c2nc(Cn3nc(-c4ccc(Cl)cc4)n(C[C@H](O)C(F)(F)F)c3=O)nn2-c2ncccc2Cl)CCN1 [Example 97, 4-[3-({3-(4-Chlorophenyl)-5-oxo-4-[(2S)-3,3,3-trifluoro-2-hydroxypropyl]-4,5-dihydro-1H-1,2,4-triazol-1-yl}methyl)-1-(3-chloropyridin-2-yl)-1H-1,2,4-triazol-5-yl]piperazin-2-one]	0.56	176.9	99.5
CC(C)(O)CNc1nc(Cn2nc(-c3ccc(Cl)cc3)n(C[C@H](O)C(F)(F)F)c2=O)nn1-c1ncccc1Cl [Example 98, 5-(4-Chlorophenyl)-2-({1-(3-chloropyridin-2-yl)-5-[(2-hydroxy-2-methylpropyl)amino]-1H-1,2,4-triazol-3-yl}methyl)-4-[(2S)-3,3,3-trifluoro-2-hydroxypropyl]-2,4-dihydro-3H-1,2,4-triazol-3-one]	1.9		145
